# Starred links: 1 amine or outer side, 2 acyl side, 3 side chain; linkers in the order of their positions; H or OH if unused. Positions of bridges follow the written chain, without caps; N, C: chain ends. Non-standard residues stand in square brackets, D forms with d. Residues, ends and D or L forms follow the SMILES beside them. *: point of attachment. NH(1-deoxy-D-glucityl) = OC[C@@H](O)[C@@H](O)[C@H](O)[C@@H](O)CN*; DOTA = O=C(O)CN1CCN(CC(=O)O)CCN(CC(=O)*)CCN(CC(=O)O)CC1; X19 = O=C([C@H](CS(=O)(=O)Cc1ccccc1)N[*:1])[*:2]; Phe(4-I) = N[C@@H](Cc1ccc(I)cc1)C(=O)O; mXylylene = c1cc(C[*:1])cc(C[*:2])c1; dOrn(Me2) = CN(C)CCC[C@@H](N)C(=O)O; Orn(Me2) = CN(C)CCC[C@H](N)C(=O)O; X2 = O=C(CN1CCC(N[*:1])CC1)[*:2]; NMeD = CN[C@@H](CC(=O)O)C(=O)O; hSer = N[C@@H](CCO)C(=O)O
# Columns and labels:
# [1] = target: T1, human carbonic anhydrase IX (hCAIX-Fc) (Homo sapiens, UniProt Q16790); assay: Surface plasmon resonance assay with hCAIX-Fc; format: binding; settings: 25° C.; for t1/2 category (activity): SPR dissociation half-life, hCAIX-Fc; for Kd: SPR, hCAIX-Fc captured, read-out: pKD category (activity) (converted)
# T1 construct: purchased SinoBliological (Sino Biological) 10107-H02H
# Protocol: Surface plasmon resonance (SPR) studies were performed using a Biacore™ T200 SPR system (GE Healthcare Life Sciences). Briefly, polarized light is directed towards a gold-labeled sensor surface, and minimum intensity reflected light is detected. The angle of reflected light changes as molecules bind and dissociate.
# Fc-fusion protein of human carbonic anhydrase IX (hCAIX-Fc, SinoBliological, Cat #10107-H02H) was captured on a Fc-capture chip (Biacore™ CM5 sensor chip coated with ˜300 RU of an Fc-binding peptide). Recombinant carbonic anydrase was diluted in Running Buffer (PBST, 0.1% DMSO) to a final concentration 100 or 200 nM and than flushed over the Fc-capture chip to immobilized ˜1000 RUs.
# Stock solutions of test compounds were prepared by dissolving each compound in DMSO. DMSO stock solution were diluted 1:1000 in Running Buffer without DMSO. Further sequencial dilutions were made with Running Buffer containing 0.1% DMSO. SPR binding analyses were performed in Single Cycle Kinetic (SCK) mode at 25° C. Flow cell coated with the Fc-binding peptide only served as reference flowcell. After each SCK run, carbonic andydrase IX was removed with 10 mM glycine buffer, pH 1.5.
# In between every three SCK measurements, a blank run with Running Buffer instead of test compound was included to correct for baseline drifts (double blanking methods).
# Table 11 describes the protocol steps for Fc-fusion target capturing and assessment of the binding kinetics.
# For each test compound, SPR raw data in the form of resonance units (RU) were plotted as sensorgrams using the Biacore™ T200 control software. The signal from the blank sensorgram was subtracted from that of the test compound sensorgram (blank corrected). The blank corrected sensorgram was corrected for baseline drift by subtracting the sensorgram of a SCK run without the test compound (running buffer only). The association rate (kon), dissociation rate (koff), dissociation constant (KD), and t1/2 were calculated from Blank-normalized SPR data using the 1:1 Langmuir binding model from the Biacore™ T200 evaluation software. Raw data and fit results were imported as text files in IDBS. The pKD value (negative decadic logarithm of dissociation constant) was calculated in the IDBS excel template.
# [2] = target: T2, CAIX-expressing human HT-29 colorectal cancer cells (Homo sapiens, UniProt Q16790); assay: FACS binding assay (IC50 determination, competition with tracer 3BP-2776 or 3BP-4149); settings: FACS binding assay, HT-29 cells, competition with tracer 3BP-2776 (10 nM, biotin-labeled), 4° C., 1 hour; read-out: pIC50 category (activity) (converted)
# T2 construct: CAIX-expressing human HT-29 colorectal cancer cells; host or cells: HT-29 human colorectal cancer cells
# Summary of the method: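 HT-29 cells in FACS buffer (PBS, 1% FCS) at 500.000 cells/ml were exposed to compounds competing with a labelled tracer, with biotinylated compounds detected by 1 μg/mL APC-streptavidin for 30 min on ice. APC/Cy5 median fluorescence was read by flow cytometry and IC50 derived by 4PL fit.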
SMILES,t1/2 category (activity) [1],Kd [1],IC50 [2]
CC(C)C[C@@H]1NC(=O)[C@H](Cc2c[nH]c3ccccc23)NC(=O)[C@H](CC(=O)O)NC(=O)[C@H]2CCCN2C(=O)[C@H](CCC(=O)O)NC(=O)[C@@H](NC(=O)[C@H](CCCN(C)C)NC(=O)[C@@H](NC(=O)CN2CCC(NC(=O)CN3CCN(CC(=O)O)CCN(CC(=O)O)CCN(CC(=O)O)CC3)CC2)C(C)C)CSCc2cccc(c2)CSC[C@@H](C(N)=O)NC(=O)[C@H](CO)NC(=O)[C@H](Cc2c[nH]c3ccccc23)NC(=O)[C@H]([C@@H](C)O)NC1=O [3BP-4095] ({DOTA}-[X2]V[Orn(Me2)]CE[dP]DWLTWSC-NH2; linker 4-13 via mXylylene),B (t1/2 between 5.1 and 15.0 minutes),< 10 nM,< 10 nM
CC(C)C[C@@H]1NC(=O)[C@H](Cc2c[nH]c3ccccc23)NC(=O)[C@H](CC(=O)O)NC(=O)[C@@H](CCCN(C)C)NC(=O)[C@H](CCC(=O)O)NC(=O)[C@@H](NC(=O)[C@H](Cc2ccc(O)cc2)NC(=O)[C@@H](NC(=O)CN2CCC(NC(=O)CN3CCN(CC(=O)O)CCN(CC(=O)O)CCN(CC(=O)O)CC3)CC2)C(C)C)CSCc2cccc(c2)CSC[C@@H](C(N)=O)NC(=O)[C@H](CO)NC(=O)[C@H](Cc2c[nH]c3ccccc23)NC(=O)[C@H]([C@@H](C)O)NC1=O [3BP-4097] ({DOTA}-[X2]VYCE[dOrn(Me2)]DWLTWSC-NH2; linker 4-13 via mXylylene),–,< 10 nM,< 10 nM
CC(C)C[C@@H]1NC(=O)[C@H](Cc2c[nH]c3ccccc23)NC(=O)[C@H](CCO)NC(=O)[C@H]2CCCN2C(=O)[C@H](CCC(=O)O)NC(=O)[C@@H](NC(=O)[C@H](Cc2ccc(O)cc2)NC(=O)[C@@H](NC(=O)CN2CCC(NC(=O)CN3CCN(CC(=O)O)CCN(CC(=O)O)CCN(CC(=O)O)CC3)CC2)C(C)C)CSCc2cccc(c2)CSC[C@@H](C(N)=O)NC(=O)[C@H](CO)NC(=O)[C@H](Cc2c[nH]c3ccccc23)NC(=O)[C@H]([C@@H](C)O)NC1=O [3BP-4102] ({DOTA}-[X2]VYCE[dP][hSer]WLTWSC-NH2; linker 4-13 via mXylylene),A (t1/2>15.0 minutes),< 10 nM,< 10 nM
CC(C)C[C@@H]1NC(=O)[C@H](Cc2c[nH]c3ccccc23)NC(=O)[C@H](CC(=O)O)NC(=O)[C@H]2CCCN2C(=O)[C@H](CCC(N)=O)NC(=O)[C@@H](NC(=O)[C@H](Cc2ccc(O)cc2)NC(=O)[C@@H](NC(=O)CN2CCC(NC(=O)CN3CCN(CC(=O)O)CCN(CC(=O)O)CCN(CC(=O)O)CC3)CC2)C(C)C)CSCc2cccc(c2)CSC[C@@H](C(N)=O)NC(=O)[C@H](CO)NC(=O)[C@H](Cc2c[nH]c3ccccc23)NC(=O)[C@H]([C@@H](C)O)NC1=O [3BP-4104] ({DOTA}-[X2]VYCQ[dP]DWLTWSC-NH2; linker 4-13 via mXylylene),B (t1/2 between 5.1 and 15.0 minutes),< 10 nM,< 10 nM
CC(C)C[C@@H]1NC(=O)[C@H](Cc2c[nH]c3ccccc23)NC(=O)[C@H](CC(=O)O)NC(=O)[C@H]2CCCN2C(=O)[C@H](CCC(=O)O)NC(=O)[C@@H](NC(=O)[C@H](CO)NC(=O)[C@@H](NC(=O)CN2CCC(NC(=O)CN3CCN(CC(=O)O)CCN(CC(=O)O)CCN(CC(=O)O)CC3)CC2)C(C)C)CSCc2cccc(c2)CSC[C@@H](C(N)=O)NC(=O)[C@H](CO)NC(=O)[C@H](Cc2c[nH]c3ccccc23)NC(=O)[C@H]([C@@H](C)O)NC1=O [3BP-4105] ({DOTA}-[X2]VSCE[dP]DWLTWSC-NH2; linker 4-13 via mXylylene),B (t1/2 between 5.1 and 15.0 minutes),< 10 nM,< 10 nM
CC(C)C[C@@H]1NC(=O)[C@H](Cc2c[nH]c3ccccc23)NC(=O)[C@H](CC(=O)O)N(C)C(=O)[C@H]2CCCN2C(=O)[C@H](CCC(=O)O)NC(=O)[C@@H](NC(=O)[C@H](Cc2ccc(O)cc2)NC(=O)[C@@H](NC(=O)CN2CCC(NC(=O)CN3CCN(CC(=O)O)CCN(CC(=O)O)CCN(CC(=O)O)CC3)CC2)C(C)C)CSCc2cccc(c2)CSC[C@@H](C(N)=O)NC(=O)[C@H](CO)NC(=O)[C@H](Cc2c[nH]c3ccccc23)NC(=O)[C@H]([C@@H](C)O)NC1=O [3BP-4107] ({DOTA}-[X2]VYCE[dP][NMeD]WLTWSC-NH2; linker 4-13 via mXylylene),A (t1/2>15.0 minutes),< 10 nM,< 10 nM
CC(C)C[C@@H]1NC(=O)[C@H](Cc2c[nH]c3ccccc23)NC(=O)[C@H](CC(=O)O)NC(=O)[C@@H](CCC(=O)NC[C@H](O)[C@@H](O)[C@H](O)[C@H](O)CO)NC(=O)[C@H](CCC(=O)O)NC(=O)[C@@H](NC(=O)[C@H](Cc2ccc(O)cc2)NC(=O)[C@@H](NC(=O)CN2CCC(NC(=O)CN3CCN(CC(=O)O)CCN(CC(=O)O)CCN(CC(=O)O)CC3)CC2)C(C)C)CSCc2cccc(c2)CSC[C@@H](C(N)=O)NC(=O)[C@H](CO)NC(=O)[C@H](Cc2c[nH]c3ccccc23)NC(=O)[C@H]([C@@H](C)O)NC1=O [3BP-4119] ({DOTA}-[X2]VYCE[dE](NH(1-deoxy-D-glucityl))DWLTWSC-NH2; linker 4-13 via mXylylene),–,< 10 nM,< 10 nM
CC(C)C[C@@H]1NC(=O)[C@H](Cc2c[nH]c3ccccc23)NC(=O)[C@H](CC(=O)O)NC(=O)[C@H]2CCCN2C(=O)[C@H](CCC(=O)O)NC(=O)[C@@H](NC(=O)[C@H](Cc2ccc(O)cc2)NC(=O)[C@@H](NC(=O)CN2CCC(NC(=O)CN3CCN(CC(=O)O)CCN(CC(=O)O)CCN(CC(=O)O)CC3)CC2)C(C)C)CSCc2cccc(c2)CSC[C@@H](C(N)=O)NC(=O)[C@H](CO)NC(=O)[C@H](Cc2c[nH]c3ccccc23)NC(=O)[C@H](CCC(=O)NC[C@H](O)[C@@H](O)[C@H](O)[C@H](O)CO)NC1=O [3BP-4121] ({DOTA}-[X2]VYCE[dP]DWLE(NH(1-deoxy-D-glucityl))WSC-NH2; linker 4-13 via mXylylene),A (t1/2>15.0 minutes),< 10 nM,< 10 nM
CC(C)C[C@@H]1NC(=O)[C@H](Cc2c[nH]c3ccccc23)NC(=O)[C@H](CC(=O)O)NC(=O)[C@H]2CCCN2C(=O)[C@H](CCC(=O)O)NC(=O)[C@@H](NC(=O)[C@H](Cc2ccc(O)cc2)NC(=O)[C@@H](NC(=O)CN2CCC(NC(=O)CN3CCN(CC(=O)O)CCN(CC(=O)O)CCN(CC(=O)O)CC3)CC2)C(C)C)CSCc2cccc(c2)CSC[C@@H](C(N)=O)NC(=O)[C@H](CCC(=O)NC[C@H](O)[C@@H](O)[C@H](O)[C@H](O)CO)NC(=O)[C@H](Cc2c[nH]c3ccccc23)NC(=O)[C@H]([C@@H](C)O)NC1=O [3BP-4122] ({DOTA}-[X2]VYCE[dP]DWLTWE(NH(1-deoxy-D-glucityl))C-NH2; linker 4-13 via mXylylene),A (t1/2>15.0 minutes),< 10 nM,< 10 nM
CC(C)C[C@@H]1NC(=O)[C@H](Cc2c[nH]c3ccccc23)NC(=O)[C@H](CS(=O)(=O)Cc2ccccc2)NC(=O)[C@H]2CCCN2C(=O)[C@H](CCC(=O)O)NC(=O)[C@@H](NC(=O)[C@H](Cc2ccc(O)cc2)NC(=O)[C@@H](NC(=O)CN2CCC(NC(=O)CN3CCN(CC(=O)O)CCN(CC(=O)O)CCN(CC(=O)O)CC3)CC2)C(C)C)CSCc2cccc(c2)CSC[C@@H](C(N)=O)NC(=O)[C@H](CO)NC(=O)[C@H](Cc2c[nH]c3ccccc23)NC(=O)[C@H]([C@@H](C)O)NC1=O [3BP-4123] ({DOTA}-[X2]VYCE[dP][X19]WLTWSC-NH2; linker 4-13 via mXylylene),A (t1/2>15.0 minutes),< 10 nM,< 10 nM
CC(C)C[C@@H]1NC(=O)[C@H](Cc2ccc(I)cc2)NC(=O)[C@H](CC(=O)O)NC(=O)[C@H]2CCCN2C(=O)[C@H](CCC(=O)O)NC(=O)[C@@H](NC(=O)[C@H](Cc2ccc(O)cc2)NC(=O)[C@@H](NC(=O)CN2CCC(NC(=O)CN3CCN(CC(=O)O)CCN(CC(=O)O)CCN(CC(=O)O)CC3)CC2)C(C)C)CSCc2cccc(c2)CSC[C@@H](C(N)=O)NC(=O)[C@H](CO)NC(=O)[C@H](Cc2c[nH]c3ccccc23)NC(=O)[C@H]([C@@H](C)O)NC1=O [3BP-4134] ({DOTA}-[X2]VYCE[dP]D[Phe(4-I)]LTWSC-NH2; linker 4-13 via mXylylene),C (t1/2 between 2.1 and 5.0 minutes),< 10 nM,< 10 nM
